Measurements from ChEMBL document CHEMBL4261621, “Synthesis of enamino-2-oxindoles via conjugate addition between α-azido ketones and 3-alkenyl oxindoles: Cytotoxicity evaluation and apoptosis inducing studies” (Bioorg Med Chem Lett, 2018).
Calls of active or inactive are those of the source. The calls are words filed in the database; no cut-off is given here.

What was measured:
HCT-116 [1] = assay: Cytotoxicity against human HCT116 cells at 30 uM after 48 hrs by MTT assay relative to control; assay type: functional
NCI-H460 [2] = assay: Cytotoxicity against human NCI-H460 cells at 30 uM after 48 hrs by MTT assay relative to control; assay type: functional
A549 = assay: Cytotoxicity against human A549 cells at 30 uM after 48 hrs by MTT assay relative to control; assay type: functional
HeLa = assay: Cytotoxicity against human HeLa cells at 30 uM after 48 hrs by MTT assay relative to control; assay type: functional
HCT-116 [3] = assay: Cytotoxicity against human HCT116 cells after 72 hrs by MTT assay; assay type: functional, cell-based; conditions: HCT-116, 72 h
NCI-H460 [4] = assay: Cytotoxicity against human NCI-H460 cells after 72 hrs by MTT assay; assay type: functional, cell-based; conditions: NCI-H460, 72 h
NCI-H460 [5] = assay: Cytotoxicity against human NCI-H460 cells assessed as reduction in cell viability after 72 hrs by phase contrast microscopic analysis; assay type: functional, cell-based
NCI-H460 [6] = assay: Induction of morphological changes in human NCI-H460 cells assessed as cell detachment after 72 hrs by phase contrast microscopic analysis; assay type: functional, cell-based
NCI-H460 [7] = assay: Induction of apoptosis in human NCI-H460 cells assessed as membrane blebbing at 0.25 to 10 uM after 72 hrs by acridine orange/ethidium bromide staining based fluorescence microscopic analysis; assay type: functional, cell-based
NCI-H460 [8] = assay: Induction of apoptosis in human NCI-H460 cells assessed as appearance of horse-shoe shaped nuclei at 0.25 to 10 uM after 72 hrs by DAPI staining based fluorescence microscopic analysis; assay type: functional, cell-based
NCI-H460 [9] = assay: Induction of mitochondrial membrane potential loss in human NCI-H460 cells assessed as depolarized cell population at 1 uM after 72 hrs by JC1 staining based flow cytometry (reference value: 11.63%); assay type: functional
NCI-H460 [10] = assay: Induction of mitochondrial membrane potential loss in human NCI-H460 cells assessed as depolarized cell population at 5 uM after 72 hrs by JC1 staining based flow cytometry (reference value: 11.63%); assay type: functional
NCI-H460 [11] = assay: Induction of apoptosis in human NCI-H460 cells assessed as early apoptotic cells at 1 uM after 72 hrs by Annexin V-alexa fluor 488/propidium iodide staining based flow cytometry (reference value: 0.77%); assay type: functional
NCI-H460 [12] = assay: Induction of apoptosis in human NCI-H460 cells assessed as viable cells at 2.5 uM after 72 hrs by Annexin V-alexa fluor 488/propidium iodide staining based flow cytometry (reference value: 98.55%); assay type: functional; conditions: NCI-H460, 72 h, read-out: Activity
NCI-H460 [13] = assay: Induction of apoptosis in human NCI-H460 cells assessed as late apoptotic cells at 2.5 uM after 72 hrs by Annexin V-alexa fluor 488/propidium iodide staining based flow cytometry (reference value: 0.34%); assay type: functional
NCI-H460 [14] = assay: Induction of apoptosis in human NCI-H460 cells assessed as late apoptotic cells at 5 uM after 72 hrs by Annexin V-alexa fluor 488/propidium iodide staining based flow cytometry (reference value: 0.34%); assay type: functional
NCI-H460 [15] = assay: Induction of apoptosis in human NCI-H460 cells assessed as necrotic cells at 10 uM after 72 hrs by Annexin V-alexa fluor 488/propidium iodide staining based flow cytometry (reference value: 0.34%); assay type: functional
NCI-H460 [16] = assay: Induction of apoptosis in human NCI-H460 cells assessed as increase in late apoptotic cells after 72 hrs by Annexin V-alexa fluor 488/propidium iodide staining based flow cytometry; assay type: functional, cell-based
NCI-H460 [17] = assay: Induction of apoptosis in human NCI-H460 cells assessed as increase in early apoptotic cells after 72 hrs by Annexin V-alexa fluor 488/propidium iodide staining based flow cytometry; assay type: functional, cell-based
NCI-H460 [18] = assay: Inhibition of colony formation in human NCI-H460 cells supplemented with fresh medium containing compounds every 3 days measured after 7 days by crystal violet staining based assay; assay type: functional, cell-based
NCI-H460 [19] = assay: Cell cycle arrest in human NCI-H460 cells assessed as accumulation at G0/G1 phase at 1 uM after 24 hrs by propidium iodide staining based flow cytometry (reference value: 49.6%); assay type: functional
NCI-H460 [20] = assay: Cell cycle arrest in human NCI-H460 cells assessed as accumulation at S phase at 1 uM after 24 hrs by propidium iodide staining based flow cytometry (reference value: 9.93%); assay type: functional
NCI-H460 [21] = assay: Cell cycle arrest in human NCI-H460 cells assessed as accumulation at G0/G1 phase at 2.5 uM after 24 hrs by propidium iodide staining based flow cytometry (reference value: 49.6%); assay type: functional
NCI-H460 [22] = assay: Cell cycle arrest in human NCI-H460 cells assessed as accumulation at S phase at 2.5 uM after 24 hrs by propidium iodide staining based flow cytometry (reference value: 9.93%); assay type: functional
NCI-H460 [23] = assay: Cell cycle arrest in human NCI-H460 cells assessed as accumulation at G2/M phase at 2.5 uM after 24 hrs by propidium iodide staining based flow cytometry (reference value: 35.49%); assay type: functional
NCI-H460 [24] = assay: Cell cycle arrest in human NCI-H460 cells assessed as accumulation at S phase at 5 uM after 24 hrs by propidium iodide staining based flow cytometry (reference value: 9.93%); assay type: functional
NCI-H460 [25] = assay: Cell cycle arrest in human NCI-H460 cells assessed as accumulation at S phase at 10 uM after 24 hrs by propidium iodide staining based flow cytometry (reference value: 9.93%); assay type: functional

CCOC(=O)/C(=C(\N)C(=O)c1ccccc1)C1C(=O)N(C)c2ccc(F)cc21 (configuration not stated)
Activity (HCT-116 [1]): >50% | Activity (NCI-H460 [2]): >50% | Activity (A549): >50% | Activity (HeLa): >50% | IC50 (HCT-116 [3]): 5.14 µM | IC50 (NCI-H460 [4]): 1.4 µM | Activity (NCI-H460 [5]): Dose-dependent effect | Activity (NCI-H460 [6]): Dose-dependent effect | Activity (NCI-H460 [7]): Active | Activity (NCI-H460 [8]): Active | Activity (NCI-H460 [9]): 42.95% | Activity (NCI-H460 [10]): 83.8% | Activity (NCI-H460 [11]): 8.72% | viability at 2.5 µM (NCI-H460 [12]): 75.9% | Activity (NCI-H460 [13]): 4.4% | Activity (NCI-H460 [14]): 3.27% | Activity (NCI-H460 [15]): 0.03% | Activity (NCI-H460 [16]): Dose-dependent effect | Activity (NCI-H460 [17]): Dose-dependent effect | inhibition (NCI-H460 [18]): Dose-dependent effect | Activity (NCI-H460 [19]): 9.77% | Activity (NCI-H460 [20]): 6.55% | Activity (NCI-H460 [21]): 9.73% | Activity (NCI-H460 [22]): 64.98% | Activity (NCI-H460 [23]): 64.03% | Activity (NCI-H460 [24]): 3.59% | Activity (NCI-H460 [25]): 3.42%
